# Experimental data reported in PMC12457209, “Jianpi‐Huogu Prescription Repairs Nontraumatic Osteonecrosis of the Femoral Head by Inhibiting NAMPT/STK11/HMGCR/ACAT1 Axis‐Mediated Lipid Production” (Journal of Cellular and Molecular Medicine, 2025).
# Target: T1, NMNAT1 (Nicotinamide Nucleotide Adenylyl Transferase 1) (Homo sapiens, UniProt Q9HAN9)
# T1 construct: amine-coupled to CM5 chip
# Test: SPR, Biacore T200, immobilised protein
# Assay type: binding
# Conditions: PBS, 5% DMSO, 0.5% P20, pH 7.4; compound 1.56 to 50 μM
# T1 sequence (Q9HAN9 whole entry): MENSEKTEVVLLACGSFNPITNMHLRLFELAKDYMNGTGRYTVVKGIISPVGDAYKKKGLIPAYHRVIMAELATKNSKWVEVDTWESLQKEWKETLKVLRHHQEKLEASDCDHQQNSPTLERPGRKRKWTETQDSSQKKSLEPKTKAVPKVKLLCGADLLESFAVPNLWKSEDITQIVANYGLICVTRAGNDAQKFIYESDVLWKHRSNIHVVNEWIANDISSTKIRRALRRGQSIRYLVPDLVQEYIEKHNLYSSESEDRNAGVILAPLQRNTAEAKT
row,Structure (SMILES),"SPR, Biacore T200, immobilised protein"
1,"COc1cc(-c2cc(=O)c3c(O)c(O)c(OC)cc3o2)ccc1O [5,6,4′‐trihydroxy‐7,3′‐dimethoxyflavone]",SPR analysis confirmed direct and specific binding of these compounds to NMNAT1
2,CCC/C=C1\OC(=O)C2=C1CC[C@@H](O)[C@H]2O [senkyunolide H],SPR analysis confirmed direct and specific binding of these compounds to NMNAT1
3,Nc1nc2c(ncn2[C@@H]2O[C@H](CO)[C@@H](O)[C@H]2O)c(=O)[nH]1 [guanosine],SPR analysis confirmed direct and specific binding of these compounds to NMNAT1
4,COc1cc(/C=C/C(=O)O)ccc1O [ferulic acid],SPR analysis confirmed direct and specific binding of these compounds to NMNAT1
